Values joined by “and” are separate entries in the source; they are usually repeats but may differ in a detail not shown here. Equal values may be shown once. “Also recorded” adds a separate entry of the source. Read-outs that look alike come from different tables or passages of the source.
Experiments:
MER = target: T1, MER (Homo sapiens, UniProt Q12866); assay: MER enzyme inhibition assay (in-house Kinase-Glo); type: biochemical
T1 construct: A purified kinase (MER or AXL) was incubated with a compound or DMSO
T1 sequence (Q12866 21-999): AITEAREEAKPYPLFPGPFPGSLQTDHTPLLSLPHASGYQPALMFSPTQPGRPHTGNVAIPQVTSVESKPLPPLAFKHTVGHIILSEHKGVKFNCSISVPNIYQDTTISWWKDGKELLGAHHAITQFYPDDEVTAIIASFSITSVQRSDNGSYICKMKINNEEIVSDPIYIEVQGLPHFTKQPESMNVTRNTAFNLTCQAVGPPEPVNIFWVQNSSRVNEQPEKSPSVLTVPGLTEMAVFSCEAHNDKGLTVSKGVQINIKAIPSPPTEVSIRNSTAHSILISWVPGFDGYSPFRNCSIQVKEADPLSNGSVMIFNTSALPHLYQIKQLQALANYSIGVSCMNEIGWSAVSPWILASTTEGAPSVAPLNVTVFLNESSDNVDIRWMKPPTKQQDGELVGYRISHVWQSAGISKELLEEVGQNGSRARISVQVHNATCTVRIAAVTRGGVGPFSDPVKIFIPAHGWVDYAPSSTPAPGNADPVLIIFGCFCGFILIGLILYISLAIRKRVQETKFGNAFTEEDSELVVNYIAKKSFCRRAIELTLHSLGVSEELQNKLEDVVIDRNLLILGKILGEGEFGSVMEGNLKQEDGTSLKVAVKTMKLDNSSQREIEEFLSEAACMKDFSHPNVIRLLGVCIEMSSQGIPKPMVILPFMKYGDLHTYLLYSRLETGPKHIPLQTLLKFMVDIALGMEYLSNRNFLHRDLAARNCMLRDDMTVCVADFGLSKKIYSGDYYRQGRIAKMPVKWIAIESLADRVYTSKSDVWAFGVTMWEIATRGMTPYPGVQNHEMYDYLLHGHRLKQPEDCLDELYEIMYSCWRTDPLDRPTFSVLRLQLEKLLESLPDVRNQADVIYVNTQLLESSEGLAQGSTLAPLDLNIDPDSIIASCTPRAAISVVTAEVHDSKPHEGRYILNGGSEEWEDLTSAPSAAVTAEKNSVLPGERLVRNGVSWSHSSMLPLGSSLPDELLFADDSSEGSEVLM

AXL = target: T2, AXL (Homo sapiens, UniProt P30530); assay: AXL enzyme inhibition assay (ADP-Glo); type: biochemical
T2 construct: A purified kinase (MER or AXL) was incubated with a compound or DMSO
T2 sequence (P30530 26-894): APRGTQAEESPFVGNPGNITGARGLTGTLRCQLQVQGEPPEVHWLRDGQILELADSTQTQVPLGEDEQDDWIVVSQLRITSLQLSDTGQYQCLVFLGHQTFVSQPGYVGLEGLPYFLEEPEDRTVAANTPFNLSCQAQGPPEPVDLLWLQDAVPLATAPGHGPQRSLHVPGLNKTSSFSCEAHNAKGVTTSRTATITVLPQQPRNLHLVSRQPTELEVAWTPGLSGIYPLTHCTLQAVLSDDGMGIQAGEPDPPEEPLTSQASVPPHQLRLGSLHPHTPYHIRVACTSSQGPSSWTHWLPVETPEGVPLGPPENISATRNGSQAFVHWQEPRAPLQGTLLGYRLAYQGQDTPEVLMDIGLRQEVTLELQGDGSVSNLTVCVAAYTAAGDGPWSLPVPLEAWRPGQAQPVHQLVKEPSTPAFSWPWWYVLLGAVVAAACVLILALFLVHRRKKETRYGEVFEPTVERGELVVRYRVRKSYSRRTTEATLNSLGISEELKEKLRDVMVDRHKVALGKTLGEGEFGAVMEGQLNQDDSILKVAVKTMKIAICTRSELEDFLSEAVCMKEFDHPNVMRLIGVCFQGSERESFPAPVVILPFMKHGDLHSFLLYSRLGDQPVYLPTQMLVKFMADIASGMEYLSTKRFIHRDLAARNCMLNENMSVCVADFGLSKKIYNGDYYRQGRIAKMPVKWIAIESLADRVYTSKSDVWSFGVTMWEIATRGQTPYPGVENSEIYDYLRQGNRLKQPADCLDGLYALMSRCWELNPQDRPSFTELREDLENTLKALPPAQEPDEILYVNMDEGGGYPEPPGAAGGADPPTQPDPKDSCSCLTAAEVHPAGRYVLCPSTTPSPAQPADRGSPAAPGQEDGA

Ba/F3-MER cells = assay: Cell viability assay (MTS); type: cell-based; conditions: 72 h
[1] = In vivo pharmacokinetics study; conditions: mice; for clearance at 24 h: read-out: iv CL; for Vd at 24 h: read-out: iv Vss; for iv DNAUC(0–inf) / po DNAUC(0–inf) / po DNCmax: dose-normalized
Protocol: The animal studies were performed according to NHRI institutional animal care and committee-approved procedures. Male ICR mice (25–35 g) were obtained from BioLASCO (Taiwan Co., Ltd., Ilan, Taiwan). […] All samples were analyzed for the parent drug by LC-MS/MS. Plasma concentration data were analyzed with a noncompartmental method.

[2] = In vitro microsomal stability assay; type: in vitro ADME; conditions: 1 μM, mouse liver microsomes, percent remaining at 30 min
Protocol: All incubations were initiated with the addition of NADPH-generating system at 37 °C for 30 min. At 0 and the end of incubation, 100 μL of aliquots were taken from the incubation mixture and placed into centrifuge tubes containing 100 μL of ice-cold acetonitrile to terminate the metabolic reaction. The samples were vortexed and centrifuged, and then, the supernatant injected onto LC/MS. Percent of remaining of each compound was calculated by comparing peak areas at 30 min to that at the initiation of incubation.

MC38 murine colon tumor = assay: MC38 syngeneic tumor model; type: in vivo, mice
Protocol: (§1) All mice were used between 6 and 7 weeks of age. […] Tumor cells were detected as free of Mycoplasma spp prior to injection into animals. […] Tumor growth was measured with an electronic caliper, and volumes were calculated as L × W × W/2. Tumor size and animal body weight were measured once a week after tumor cell inoculation. Tumor growth inhibition (% TGI) = [1 – ΔT/ΔC] × 100, where ΔT is the difference of average tumor volume on the measured day and day 0 of treated groups and ΔC is the difference of average tumor volume on the measured day and day 0 of control groups.

[3] = test system: 4T1 murine triple-negative breast tumors; assay: 4T1 syngeneic tumor model; type: in vivo, mice; conditions: 50 mg/kg QD, FOTO
Protocol: as §1

[4] = test system: Hepa1–6 murine liver tumors; assay: Hepa1–6 tumor model; type: in vivo, mice; conditions: 30 mg/kg orally QD, FOTO
Protocol: as §1

[5] = test system: MDA-MB-231 human triple-negative breast xenograft tumors; assay: MDA-MB-231 xenograft tumor model; conditions: 50 mg/kg QD, FOTO
Protocol: as §1

[6] = male, ICR, mouse, plasma, iv 2 mg/kg, po 10 mg/kg
[7] = male, ICR, mouse, plasma, iv 2 mg/kg
[8] = male, ICR, mouse, plasma, iv 2 mg/kg, read-out: iv T1/2 (converted)
[9] = male, ICR, mouse, plasma, po 10 mg/kg
[10] = male, ICR, mouse, plasma, po 10 mg/kg, read-out: po T1/2 (converted)
[11] = male, ICR, mouse, plasma, iv 3 mg/kg

Work on `Cn1cc(-c2oc3ncnc(Oc4ccc(NC(=O)c5cccn(-c6ccc(F)cc6)c5=O)cc4)c3c2-c2cccc(N3CCNCC3)c2)cn1` [Compound 34, 1-(4-Fluorophenyl)-N-[4-({6-(1-methyl-1H-pyrazol-4-yl)-5-[3-(piperazin-1-yl)phenyl]furo[2,3-d]pyrimidin-4-yl}oxy)phenyl]-2-oxo-1,2-dihydropyridine-3-carboxamide] yielded an IC50 (MER) of 2.1 nM, an IC50 (AXL) of 12.1 nM and an IC50 (Ba/F3-MER cells) of 8.4 nM. The bioavailability at 24 h [1, 6] was 0.6%, the clearance at 24 h [1, 7] was 42.9 mL/min/kg and the half-life at 24 h [1, 8] was 402 min. For the same molecule, the Vd at 24 h [1, 7] was 14.2 L/kg, the Tmax [1, 9] was 2.2 h and the half-life at 24 h [1, 10] was 282 min. For the same molecule, the “iv DNAUC(0–inf)” value ([1]; iv 2 mg/kg) was 454.5 ng·h/mL, the “po DNAUC(0–inf)” value ([1]; po 10 mg/kg) was 2.6 ng·h/mL and the “po DNCmax” value ([1]; po 10 mg/kg) was 0.7 ng/mL. For the same molecule, the “Microsomal stability @ 30 min” value [2] was 83%.
For `COc1cc2nccc(Oc3ccc(NC(=O)c4cc5c(n(-c6ccccc6)c4=O)CCCC5=O)nc3)c2cc1OC` [Compound 8, tamnorzatinib], the IC50 (MER) was 9.8 nM, the “TGI, % of Vehicle Control” value (MC38 murine colon tumor; 50 mg/kg orally QD, FOTO) was 45% and 44.8 ± 4.6% and the “TGI, % of Vehicle Control” value [3] was 12% and 12.2 ± 3.7%. For the same molecule, the “TGI, % of Vehicle Control” value [4] was 17% and 16.7 ± 12.0% and the “TGI, % of Vehicle Control” value [5] was 9% and 8.7 ± 4.7%.
Molecule `Cn1cc(-c2oc3ncnc(Oc4ccc(NC(=O)c5cccn(-c6ccc(F)cc6)c5=O)cc4)c3c2-c2cccc(N)c2)cn1` [Compound 22, N-(4-{[5-(3-Aminophenyl)-6-(1-methyl-1H-pyrazol-4-yl)furo[2,3-d]pyrimidin-4-yl]oxy}phenyl)-1-(4-fluorophenyl)-2-oxo-1,2-dihydropyridine-3-carboxamide] has a clearance at 24 h [1, 11] of 2.9 mL/min/kg, a half-life at 24 h ([1]; male, ICR, mouse, plasma, iv 3 mg/kg, read-out: iv T1/2 (converted)) of 360 min and a Vd at 24 h [1, 11] of 1.2 L/kg. The bioavailability at 24 h ([1]; male, ICR, mouse, plasma, iv and po 3 mg/kg) was 19.2%, the Tmax at 24 h ([1]; male, ICR, mouse, plasma, po 3 mg/kg) was 4 h and the half-life at 24 h ([1]; male, ICR, mouse, plasma, po 3 mg/kg, read-out: po T1/2 (converted)) was 204 min. The “iv DNAUC(0–inf)” value ([1]; iv 3 mg/kg) was 3,985.3 ng × hr/mL, the “po DNAUC(0–inf)” value ([1]; po 3 mg/kg) was 764.0 ng·h/mL and the “po DNCmax” value ([1]; po 3 mg/kg) was 38.7 ng/mL. For the same molecule, the “body weight during treatment” value (MC38 murine colon tumor; MC38 tumor-bearing mice, 25-50 mg/kg orally, 3 weeks) was “No significant body weight loss; also recorded: well-tolerated without significant body weight loss”.
With `CN1CCN(c2cccc(-c3c(-c4cnn(C)c4)oc4ncnc(Oc5ccc(NC(=O)c6cccn(-c7ccc(F)cc7)c6=O)cc5)c34)c2)CC1` [Compound 35, 1-(4-Fluorophenyl)-N-[4-({5-[3-(4-methylpiperazin-1-yl)phenyl]-6-(1-methyl-1H-pyrazol-4-yl)furo[2,3-d]pyrimidin-4-yl}oxy)phenyl]-2-oxo-1,2-dihydropyridine-3-carboxamide] the IC50 (MER) was 14.2 nM, the IC50 (AXL) was 11.1 nM and the IC50 (Ba/F3-MER cells) was 7.5 nM. The bioavailability at 24 h [1, 6] was 14.8%, the clearance at 24 h [1, 7] was 87.1 mL/min/kg and the half-life at 24 h [1, 8] was 144 min. It also gave a Vd at 24 h [1, 7] of 7.4 L/kg, a Tmax at 24 h [1, 9] of 2.7 h and a half-life at 24 h [1, 10] of 258 min. The “iv DNAUC(0–inf)” value ([1]; iv 2 mg/kg) was 221.0 ng·h/mL, the “po DNAUC(0–inf)” value ([1]; po 10 mg/kg) was 32.8 ng·h/mL and the “po DNCmax” value ([1]; po 10 mg/kg) was 4.5 ng/mL. For the same molecule, the “Microsomal stability @ 30 min” value [2] was 59%.
`Cn1cc(-c2oc3ncnc(Oc4ccc(NC(=O)c5cccn(-c6ccc(F)cc6)c5=O)cc4)c3c2-c2cccc(CN)c2)cn1` [Compound 31, N-[4-({5-[3-(Aminomethyl)phenyl]-6-(1-methyl-1H-pyrazol-4-yl)furo[2,3-d]pyrimidin-4-yl}oxy)phenyl]-1-(4-fluorophenyl)-2-oxo-1,2-dihydropyridine-3-carboxamide] showed an IC50 (Ba/F3-MER cells) of 7.6 nM, a clearance at 24 h [1, 7] of 35.1 mL/min/kg and a half-life at 24 h [1, 8] of 378 min. For the same molecule, the Vd at 24 h [1, 7] was 9.9 L/kg, the “iv DNAUC(0–inf)” value ([1]; iv 2 mg/kg) was 483.0 ng·h/mL and the “Microsomal stability @ 30 min” value [2] was 77%.
